Assay results published in article PMC6357004 (Viruses, 2018).

What was measured:
N294S mutant = conditions: cited from earlier work
[1] = target: neuraminidase (NA) of recombinant influenza B/Phuket/3073/2013 WT virus (Influenza B virus, UniProt A0A1S5RAG6); type: biochemical, influenza B/Phuket/3073/2013 virus
Sequence of neuraminidase (NA) of recombinant influenza B/Phuket/3073/2013 WT virus (A0A1S5RAG6 entry or part of it, added parts left off): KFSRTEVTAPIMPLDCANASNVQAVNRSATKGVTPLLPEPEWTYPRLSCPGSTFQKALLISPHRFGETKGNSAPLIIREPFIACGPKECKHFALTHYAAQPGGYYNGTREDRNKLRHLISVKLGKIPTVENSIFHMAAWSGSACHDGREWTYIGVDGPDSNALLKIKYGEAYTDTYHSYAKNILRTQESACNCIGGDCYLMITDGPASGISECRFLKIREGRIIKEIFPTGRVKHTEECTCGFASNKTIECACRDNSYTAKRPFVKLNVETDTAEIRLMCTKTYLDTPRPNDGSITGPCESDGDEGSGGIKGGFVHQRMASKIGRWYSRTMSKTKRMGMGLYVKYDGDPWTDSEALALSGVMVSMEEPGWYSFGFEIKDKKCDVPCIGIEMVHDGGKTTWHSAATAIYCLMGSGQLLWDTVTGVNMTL

SMILES	susceptibility phenotype (N294S mutant)	Folds (fold changes according to WT virus) [1]	IC50 ([1]; mean of two independent experiments in duplicate, read-out: Neuraminidase Inhibitors IC50 values)
CC(=O)N[C@H]1[C@H]([C@H](O)[C@H](O)CO)OC(C(=O)O)=C[C@@H]1N=C(N)N [Zanamivir, zanamivir]	susceptible		
CCC(CC)[C@H](NC(C)=O)[C@@H]1[C@H](O)[C@@H](C(=O)O)C[C@H]1N=C(N)N [Peramivir, peramivir]		1 fold	0.74 nM
